According to patent publication US9796676B2, “Honeybee repellents and uses thereof” (Inscent, Inc., priority 2013, dated 2017):

Legend:
[1] = cited from earlier work
[2] = test system: Apis mellifera Carniolan foraging worker honeybees; assay: Choice test in a free-flight box apparatus; format: in vivo; settings: for P (probability that a honeybee will return to a test dish, nP divided by n): control likelihood without compound 47.5%; for nP (number of tests a honeybee returned to a preferred test dish): free-flight box, 2 μL of 0.05-0.5% compound on filter papers under honey dish
Text: To determine whether living honeybees will choice to move towards a source of a candidate compound, these compounds will be assayed using a choice test in a free-flight box apparatus.
All tests will be done in a free-flight box apparatus. The apparatus comprises a 244 cm long×46 cm deep×30 cm high clear plastic box including two equally-sized independent testing chambers, each with 10 cm diameter air inlets that admit filtered room air, separated by a smaller central chamber with a screened air outlet to each testing chamber. Air can be pulled through the sealed box via a 10 cm diameter duct from the air outlet using an AQE Fume Fighter 500 fume extractor (BPA Air Quality Solutions, LLC, Charleston, S.C.), which removes the test odors using activated charcoal and HEPA filters. The box is housed in an environmentally controlled room with overhead illumination timed to correspond to the current ambient light cycle including 2 additional sets of lights timed to approximate crepuscular lighting conditions. The bottom of the apparatus will be lined with clean absorbent paper marked with a 4×9 grid pattern, forming 12 cm×12 cm squares with marked coordinates.
Apis mellifera Carniolan foraging worker honeybees will be obtained from a local apiary (typically 60 bees per shipment). Thirty honeybees will be put into each testing chamber and will be allowed to acclimate for 24 hours with food and water freely available. At the beginning of each test day all food will be removed from the test chamber, but water will be continually available throughout all tests. For each test, approximately 0.3 g of organic, raw orange blossom honey will be added to each clean small plastic weigh boat (Cole-Palmer). The honey boats will be placed in small plastic culture dishes, which will be distributed in the marked squares in the chambers. The positions of the dishes on the grid for a set of trials will be chosen to avoid the bees' preferred resting area so that they will have to find the food actively, but the same dish positions will be maintained for a given set of trials. We will use seven dishes of honey: six to which the bees will have access and a seventh that will have a screened lid. The honey in each boat will be weighed on an analytical balance before and after the test, with the screened sample as a control for evaporative loss. The fume extractor will be left off during the experimental trails, and will be turned on to clear the air after the test dishes are covered and removed from the chamber at the end of each trial.
Based on the observation that bees tend to return to dishes in the same position where they have fed before, each set of trials with each group of bees began with “Pattern Identification” tests to see which dishes lose the most weight, reflecting the most feeding. Once bees are consuming an acceptable amount in 10-15 min, typically in 1-2 trials, a set of test compound trials will begin. The test compound will be pipetted onto pieces of filter paper placed on the dish bottom below the boat containing a fresh, weighed honey sample so that the test compound will be inaccessible to the bees. We used 2 μL of a candidate compound at a concentration of 0.05-0.5%, in Triton X-100 or paraffin oil, on each of four pieces of filter paper per dish. The test-solution dishes will be set at the same positions as the one or two dishes favored in the preceding Pattern Identification trial. To eliminate interference from the solvent, the other dishes without the test substance will contain the same volume of the appropriate solvent on filter papers as the test solution dishes. The bees will be allowed to feed for 10-15 minutes. Bee movements will be recorded by a small, wide-angle digital video camcorder (HD Hero 960; GoPro, Halfmoon Bay, Calif.) placed on a tripod in front of the test chamber. […]

[3] = test system: Apis mellifera Carniolan foraging worker honeybees; assay: Proboscis extension response (PER) assay with bees conditioned to 2-heptanone; format: in vivo; settings: 0.5% compound in Triton X-100/water on filter paper, 4 s exposure; only bees giving PER with 2-heptanone and not with water or 15% Triton X-100 controls counted
Method: To determine whether a living honeybee can recognize a candidate compound, these compounds were tested using a proboscis extension response (PER) assay using classical conditioning approaches. Proboscis extension response conditioning is a case of appetitive learning, in which bees learn to associate odor stimuli with sucrose reward in the laboratory. In this case, bees were conditioned to produce a PER to 2-heptanone as the conditioned stimulus and a sugar reward as the unconditioned stimulus. These trained bees were then exposed to an odor pulse of a candidate compound to test whether a candidate compound would also produce a PER. If the candidate compound “mimics” 2-heptanone then the honeybee will extend its proboscis.
For conditioning procedures, Apis mellifera Carniolan foraging worker honeybees were obtained from a local apiary (typically 60 bees per shipment). The honeybees were held overnight in insect cages with food and water freely available, in an environmentally controlled room on a light cycle similar to the ambient cycle at the time of the assay.
For conditioning procedures, all tests were done in an odorant delivery apparatus set inside a fume hood. The apparatus comprised a set of open-ended, horizontal, 3 cm diameter by 10 cm long plastic tubes. Each tube was designed where a honeybee could be positioned at the distal end of a tube, with the opening at the other end of the tube located proximal to an inlet of the fume hood. To deliver an odorant, room air was pumped by a diaphragm pump through a particle filter via 0.25 inch plastic tubing at approximately 0.7 m/sec. The air flow passes into the headspace above an odorant (0.5% [v/v] 2-heptanone dissolved in odorless light paraffin oil) contained in a 100 mL bottle. The headspace air then passes through another plastic tube to a manifold of 4-way valves, each of which was attached near the proximal end of a plastic tube containing a bee. Each bee was exposed separately for a desired time period to the odorant by opening and closing the appropriate valve. When each valve was closed, the odor was flushed away immediately by the continuous fume hood air stream.
To train a honeybee to respond to a conditioned and unconditioned stimuli, bees were placed, without anesthesia, in individual 1.5 mL micro-centrifuge holding tubes and held overnight without access to food or water. The holding tubes containing the starved bees were placed in racks in groups of eight. One rack at a time was placed behind the odorant delivery apparatus so that each bee's head is centered at the distal end of a horizontal plastic tube. Each bee was exposed to the 2-heptanone odorant alone for four seconds, and then while being fed an 80% sucrose solution for and additional three seconds. The sucrose solution was delivered on a piece of saturated filter paper held in forceps. […] Positive and negative responses were recorded. A positive PER was scored when a bee extended its proboscis before the sucrose appeared. In a typical trial, 48 individual bees were subjected to conditioning.
After conditioning, honeybees were tested with the candidate compounds the same day or on the following day or, most commonly, both. When held overnight, bees were fed with sucrose and kept in their holding tubes. When tested the day after training, bees were given one or more rounds of conditioning with 2-heptatone to refresh their memories. Candidate compounds stocks were made at 5% (w/v) in polyoxyethylene octyl phenyl ether (TRITON® X-100), a non-ionic detergent/surfactant, and stored at 4° C. […] Test solutions were made fresh daily by mixing stock solutions with water for a final compound concentration of 0.5%. A solution of 0.5% 2-heptanone in paraffin oil was used as a positive control.

OBP2 = assay: Fluorescent-quench ligand-protein-binding assay (OBP2 binding); set-up: species or system Apis mellifera
Text: To identify a honeybee repellent disclosed herein, candidate compounds were screened based upon the fact that 2-heptanone is an established repellent of bees. 2-heptanone is thought to mediate its behavioral response through binding to a specific odorant-binding protein called OBP2. […] Such assays are generally known in the art. See, e.g., Briand, et al., Ligand-Binding Properties and Structural Characterization of a Novel Rat Odorant-Binding Protein Variant, Eur. J. Biochem. 267(10): 3079-3089 (2000); Briand, et al., Ligand Binding and Physico-Chemical Properties of ASP2, A Recombinant Odorant-Binding Protein From Honeybee (Apis mellifera L.), Eur. J. Biochem. 268(3): 752-760 (2001); Briand, et al., Characterization of a Chemosensory Protein (ASP3c) from Honeybee (Apis mellifera L.) as a Brood Pheromone Carrier, Eur. J. Biochem. 269(18): 4586-4596 (2002), each of which is hereby incorporated by reference in its entirety.

CCCCCC(C)=O [2-heptone, 2-Heptanone, reference compound]
Solubility in water [1]: very slightly soluble
Z-score ([2]; Z-test vs control likelihood 47.5%, alpha=10%, critical Z-score 1.282, positive = attractant, negative = repellant): −2.256
P (probability that a honeybee will return to a test dish, nP divided by n) [2]: 0.425
nP (number of tests a honeybee returned to a preferred test dish) [2]: 217

Oc1ccc2ccccc2c1C=NNc1ccccn1 [compound 66, 2-hydroxy-1-naphthaldehyde 2-pyridinylhydrazone]
2-heptanone positive bees testing positive to compound [3]: 24.4%
OBP2 binding characteristic of compound (OBP2): Moderate (Moderate, indicates that 50% or less of the compound bound to OBP2.)
P (probability that a honeybee will return to a test dish, nP divided by n) [2]: 0.379
nP (number of tests a honeybee returned to a preferred test dish) [2]: 22

CCc1ccc(O)c(N=Cc2cc(I)cc(I)c2O)c1 [compound 89, 2-{[(5-ethyl-2-hydroxyphenyl)imino]methyl}-4,6-diiodophenol]
2-heptanone positive bees testing positive to compound [3]: 33.3%
OBP2 binding characteristic of compound (OBP2): Moderate (Moderate, indicates that 50% or less of the compound bound to OBP2.)
P (probability that a honeybee will return to a test dish, nP divided by n) [2]: 0.278
nP (number of tests a honeybee returned to a preferred test dish) [2]: 5
